Reference: publication PMC4295349, “Synthetic Antimicrobial Peptides Exhibit Two Different Binding Mechanisms to the Lipopolysaccharides Isolated from Pseudomonas aeruginosa and Klebsiella pneumoniae” (International Journal of Medicinal Chemistry, 2014)
Where two headings read alike, the source gives them in different places. Where a SMILES comes first, the peptide text is derived from it. [ ]: non-standard residue; d: D form. Oic = O=C(O)[C@@H]1C[C@@H]2CCCC[C@@H]2N1; Tic = O=C(O)[C@@H]1Cc2ccccc2CN1; Dab = NCC[C@H](N)C(=O)O

How the values were obtained:
[1] = test system: K. pneumoniae BAMC 07-18; type: cell-based, Klebsiella pneumoniae
Description: Table 3 In vitro minimum inhibitory concentration (MIC) and minimum bactericide concentration (MBC) activity against K. pneumonia and P. aeruginosa. | column: K. pneumoniae BAMC 07-18 / MBC (μg/mL)/(μM)

[2] = test system: P. aeruginosa PAO1
[3] = test system: P. aeruginosa PAO1; type: cell-based, Pseudomonas aeruginosa
Description: Table 3 In vitro minimum inhibitory concentration (MIC) and minimum bactericide concentration (MBC) activity against K. pneumonia and P. aeruginosa. | column: P. aeruginosa PAO1 / MBC (µg/mL)/(μM)

[4] = test system: LPS isolated from P. aeruginosa or K. pneumoniae; experiment: Precipitation of AMP-LPS mixtures prepared for CD; type: physicochemical; conditions: 350 μL stock LPS + 50 μL stock peptide, phosphate buffer; CD spectra could not be obtained
Method: Peptide solutions were prepared by dissolving approximately 2 mg of AMPs 70, 74, 75, 79, or 80 in 1.0 mL of phosphate buffer. […] For the LPS liposome studies 350 μL of stock LPS solution was mixed with 50 μL of stock peptide solution. CD spectroscopy is a sensitive technique, so it is commonly used to monitor conformational changes in peptides and proteins. […] All CD spectra were obtained by acquiring 8 scans using a 0.1 mm cylindrical quartz cell with a spectral range of 260 to 195 nm (at wavelengths below 195 nm the HTV exceeded 400, and therefore data collection was terminated at 195 nm) and a scanning rate of 20 nm/min. Acquisition parameters were bandwidth 1 nm, data pitch 0.2 nm, response time 2.0 s, and 5 mdeg sensitivity. Spectra were collected at room temperature (298 K). Contributions from LPS were eliminated by subtracting from the corresponding AMP-LPS solutions. All analyses of CD spectra were conducted after smoothing with a means-movement function.

[5] = test system: K. pneumoniae BAMC 07-18
[6] = K. pneumoniae BAMC 07-18, light face value
[7] = P. aeruginosa PAO1, light face value

## CC(C)C[C@H](NC(=O)[C@@H](N)CCN)C(=O)N1Cc2ccccc2C[C@H]1C(=O)N1[C@H](C(=O)N[C@@H](CCN)C(=O)N2Cc3ccccc3C[C@H]2C(=O)N2[C@H](C(=O)N[C@@H](Cc3ccccc3)C(=O)N3Cc4ccccc4C[C@H]3C(=O)N3[C@H](C(=O)N[C@@H](CCN)C(=O)N4Cc5ccccc5C[C@H]4C(=O)N4[C@H](C(=O)N[C@@H](Cc5ccccc5)C(=O)N5Cc6ccccc6C[C@H]5C(=O)N5[C@H](C(=O)N[C@@H](CCN)C(=O)N6Cc7ccccc7C[C@H]6C(=O)N6[C@H](C(=O)N[C@@H](CCN)C(=O)N[C@@H](CCN)C(=O)N[C@@H](CCN)C(=O)N[C@@H](CCN)C(N)=O)C[C@@H]7CCCC[C@@H]76)C[C@@H]6CCCC[C@@H]65)C[C@@H]5CCCC[C@@H]54)C[C@@H]4CCCC[C@@H]43)C[C@@H]3CCCC[C@@H]32)C[C@@H]2CCCC[C@@H]21 [AMP 73] (H-[Dab]L[Tic][Oic][Dab][Tic][Oic]F[Tic][Oic][Dab][Tic][Oic]F[Tic][Oic][Dab][Tic][Oic][Dab][Dab][Dab][Dab]-NH2)
[1]; BAMC 07-18
  MBC: 32.4 µM
[1]; [6]
  MBC: 100 µg/mL
[2]; [7]
  MIC: 50 µg/mL
[2]; PAO1
  MIC: 16.2 µM
[3]; [7]
  MBC: 100 µg/mL
[3]; PAO1
  MBC: 32.4 µM
[4]
  precipitation in the presence of either LPS: precipitation of uncharacterized AMP-LPS complexes
[5]; BAMC 07-18
  MIC: 16.2 µM
[5]; [6]
  MIC: 50 µg/mL
